# Data reported in PMC4385452 (Bioorganic & medicinal chemistry letters, 2015).
# What was measured:
# [1] = intrinsic clearance in liver microsomes; conditions: mouse
# human CHT = target: T1, human CHT (Homo sapiens, UniProt Q9GZV3, L531A/V532A); type: cell-based
# T1 sequence (Q9GZV3 1-580 L531A/V532A): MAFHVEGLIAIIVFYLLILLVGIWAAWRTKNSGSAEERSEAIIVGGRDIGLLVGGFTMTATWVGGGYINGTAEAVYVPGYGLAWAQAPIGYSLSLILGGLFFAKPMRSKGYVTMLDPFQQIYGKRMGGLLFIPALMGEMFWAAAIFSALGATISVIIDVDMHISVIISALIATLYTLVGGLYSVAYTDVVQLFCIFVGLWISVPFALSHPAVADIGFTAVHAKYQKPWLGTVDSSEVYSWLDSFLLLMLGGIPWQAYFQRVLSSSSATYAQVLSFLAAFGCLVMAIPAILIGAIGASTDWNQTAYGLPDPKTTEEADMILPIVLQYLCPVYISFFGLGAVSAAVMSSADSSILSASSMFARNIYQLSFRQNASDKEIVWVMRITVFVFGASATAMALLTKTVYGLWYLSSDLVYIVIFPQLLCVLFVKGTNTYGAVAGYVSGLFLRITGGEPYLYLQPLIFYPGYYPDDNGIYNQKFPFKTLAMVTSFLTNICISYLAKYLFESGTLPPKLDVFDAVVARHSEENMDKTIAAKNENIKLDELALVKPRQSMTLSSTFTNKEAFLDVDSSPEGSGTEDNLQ
# [2] = cassette tissue distribution study in mice; type: in vivo, mouse; conditions: 1.0 mg/kg per compound intraperitoneal cassette dose, n = 3
# [3] = tested on: dopamine transporter (DAT); conditions: at the highest concentration tested; cited from earlier work
Compound,CLint scaled [1],CHT inhibitory activity (human CHT),other results
COc1ccc(C(=O)NCc2csc(C)n2)cc1OC1CCN(C(C)C)CC1 [Compound 10b],979 mL/min/kg,,
COc1ccc(C(=O)NCc2ccc(C)s2)cc1OC1CCN(C(C)C)CC1 [Compound 10c],,,activity at the high choline concentration (human CHT; high (10 μM) choline): modest inhibitory activity; activity at the low choline concentration (human CHT; low (100 nM) choline): inactive
COc1ccc(C(=O)NCc2cc(C(C)C)no2)cc1OC1CCN(C(C)C)CC1 [Compound 10e],781 mL/min/kg,,Brain concentration [2]: BLQ
CCn1nc(C)c(CNC(=O)c2ccc(OC)c(OC3CCN(C(C)C)CC3)c2)c1C [Compound 10f],29.9 mL/min/kg,,Brain concentration [2]: BLQ
COc1ccc(C(=O)NC(C)Cc2ccccn2)cc1OC1CCN(C(C)C)CC1 (stereo not drawn) [Compound 10k],106 mL/min/kg,,
COc1ccc(C(=O)NCc2cc(C(C)C)no2)cc1OC1CCNCC1 [Compound 10l],,much less active,
"COc1ccc(C(=O)NCc2cc(C(C)C)no2)cc1OC1CCN(C)CC1 [Compound 10m, N-((3-isopropylisoxazol-5-yl)methyl)-4-methoxy-3-((1-methylpiperidin-4-yl)oxy)benzamide]",43.7 mL/min/kg,equipotent with the isopropyl analog,DAT inhibitory activity [3]: did not show any inhibitory activity
COc1ccc(C(=O)NCc2cc(C(C)C)no2)cc1OC1CCCN(C)C1 (stereo not drawn) [Compound 10n],,"tolerated, but less active",
COc1ccc(C(=O)NCc2cc(C(C)C)no2)cc1OC1CCCCC1 [Compound 10o],,inactive,
COc1ccc(C(=O)NCc2cc(C(C)C)no2)cc1OC1CCCC1 [Compound 10p],,inactive,
COc1ccc(C(=O)NCc2cc(C(C)C)no2)cc1OCCN1CCCCC1 [Compound 10q],167 mL/min/kg,,
COc1ccc(C(=O)NCc2cc(C(C)C)no2)cc1OCCN1CCOCC1 [Compound 10r],,,fold less active than the piperidine analog (human CHT; morpholine 10r versus piperidine 10q): ~ 10 fold
COc1ccc(C(=O)NCc2cc(C(C)C)no2)cc1O [Compound 10v],,inactive,
